According to ChEMBL document CHEMBL1201862, “PubChem BioAssay data set” (2004):
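Test compounds were applied to cells in 96-well plates for 48 hours at 5 doses. Abbreviation: GI50, concentration required for 50% inhibition of growth.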 The source made the active and inactive calls. Cut-off read from the data, not from the text of the source: active = GI50 up to about 1.1 µM and inactive = higher.

What was measured:
Experiment in all cases: NCI anticancer screen, dose series, 48 h
OVCAR-8 = system: OVCAR-8
CCRF-CEM = system: CCRF-CEM
SR = system: SR
OVCAR-4 = system: OVCAR-4
BT-549 = system: BT-549
OVCAR-5 = system: OVCAR-5
EKVX = system: EKVX
MDA-N = system: MDA-N
SW-620 = system: SW-620
SF-295 = system: SF-295
HCT-116 = system: HCT-116
HT-29 = system: HT-29
RPMI-8226 = system: RPMI-8226
OVCAR-3 = system: OVCAR-3
TK-10 = system: TK-10
MDA-MB-435 = system: MDA-MB-435
SN12C = system: SN12C
IGROV-1 = system: IGROV-1
U-251 = system: U-251
UACC-257 = system: UACC-257

SMILES | GI50 (OVCAR-8) | GI50 (CCRF-CEM) | GI50 (SR) | GI50 (OVCAR-4) | GI50 (BT-549) | GI50 (OVCAR-5) | GI50 (EKVX) | GI50 (MDA-N) | GI50 (SW-620) | GI50 (SF-295) | GI50 (HCT-116) | GI50 (HT-29) | GI50 (RPMI-8226) | GI50 (OVCAR-3) | GI50 (TK-10) | GI50 (MDA-MB-435) | GI50 (SN12C) | GI50 (IGROV-1) | GI50 (U-251) | GI50 (UACC-257)
Cc1cc(NC(=O)NC(=O)c2ccccc2NC(=O)C(C)N)ccc1Oc1ncc(Br)cn1 (stereo not given) | 0.141 µM (active) | 0.0619 µM (active) | 0.111 µM (active) | 5.36 µM (inactive) | 26.8 µM (inactive) | 1.09 µM (active) | 0.335 µM (active) | 0.0202 µM (active) | 0.185 µM (active) | 0.0256 µM (active) | 0.714 µM (active) | 0.116 µM (active) | 0.207 µM (active) | 0.0196 µM (active) | 1.22 µM (inactive) | 0.0254 µM (active) | 0.0885 µM (active) | 0.153 µM (active) | 0.202 µM (active) | 0.547 µM (active)
C=C1C[C@H](O)[C@H](Br)C(C)(C)C12CCC(C)(Cl)C(Br)C2 (stereo not given in full) | 1.23 µM (inactive) | 0.0359 µM (active) | 2.19 µM (inactive) | 0.635 µM (active) | 7.53 µM (inactive) | 0.762 µM (active) | 0.286 µM (active) | 1.39 µM (inactive) | 4.99 µM (inactive) | 1.19 µM (inactive) | 6.38 µM (inactive) | 0.141 µM (active) | 0.589 µM (active) | 4.3 µM (inactive) | 3.15 µM (inactive) | 2.3 µM (inactive) | 4.37 µM (inactive) | 4.38 µM (inactive) | 0.272 µM (active) | 0.526 µM (active)
Cc1sc2nc3n(sc4nc5sc(C)c(C)c5c(=O)n43)c(=O)c2c1C | > 100 µM (inactive) | 16.4 µM (inactive) | 75.5 µM (inactive) | 63.8 µM (inactive) | 70.5 µM (inactive) | > 100 µM (inactive) | 30.3 µM (inactive) | > 100 µM (inactive) | 45.9 µM (inactive) | > 100 µM (inactive) | > 100 µM (inactive) | > 100 µM (inactive) | > 100 µM (inactive) | > 100 µM (inactive) | > 100 µM (inactive) | > 100 µM (inactive) | > 100 µM (inactive) | > 100 µM (inactive) | > 100 µM (inactive) | > 100 µM (inactive)
CCOC(=O)CCc1cc(=O)oc2cc(O)cc(O)c12 | > 100 µM (inactive) | > 100 µM (inactive) | > 100 µM (inactive) | > 100 µM (inactive) | > 100 µM (inactive) | > 100 µM (inactive) | 62.5 µM (inactive) | > 100 µM (inactive) | > 100 µM (inactive) | > 100 µM (inactive) | > 100 µM (inactive) | > 100 µM (inactive) | > 100 µM (inactive) | > 100 µM (inactive) | > 100 µM (inactive) | > 100 µM (inactive) | > 100 µM (inactive) | > 100 µM (inactive) | > 100 µM (inactive) | > 100 µM (inactive)
COc1ccc(OC)c(-c2nc3n(c2/C=C2/C(=O)Nc4ccccc42)CCS3)c1 | 68.1 µM (inactive) | 35 µM (inactive) | 32.8 µM (inactive) | 41.5 µM (inactive) | 81.5 µM (inactive) | > 100 µM (inactive) | > 100 µM (inactive) | 18.2 µM (inactive) | 40.9 µM (inactive) | 29.4 µM (inactive) | 45.2 µM (inactive) | 47.6 µM (inactive) | 35 µM (inactive) | 36.1 µM (inactive) | 41.2 µM (inactive) | 17.5 µM (inactive) | 65.8 µM (inactive) | 36 µM (inactive) | 67 µM (inactive) | 63.1 µM (inactive)
CC1(C)C/C=C\CCC(O)C(O)CCC(C)(C)C1=O (stereo not given) | > 100 µM (inactive) | > 100 µM (inactive) | > 100 µM (inactive) | > 100 µM (inactive) | > 100 µM (inactive) | > 100 µM (inactive) | > 100 µM (inactive) | > 100 µM (inactive) | > 100 µM (inactive) | > 100 µM (inactive) | > 100 µM (inactive) | > 100 µM (inactive) | > 100 µM (inactive) | > 100 µM (inactive) | > 100 µM (inactive) | > 100 µM (inactive) | > 100 µM (inactive) | > 100 µM (inactive) | > 100 µM (inactive) | > 100 µM (inactive)
OCC1OC(Oc2cc(O)cc(/C=C\c3ccc(O)cc3)c2)C(O)C(O)C1O (stereo not given) | > 100 µM (inactive) | > 100 µM (inactive) | > 100 µM (inactive) | > 100 µM (inactive) | > 100 µM (inactive) | > 100 µM (inactive) | > 100 µM (inactive) | > 100 µM (inactive) | > 100 µM (inactive) | > 100 µM (inactive) | > 100 µM (inactive) | > 100 µM (inactive) | > 100 µM (inactive) | > 100 µM (inactive) | > 100 µM (inactive) | > 100 µM (inactive) | > 100 µM (inactive) | > 100 µM (inactive) | > 100 µM (inactive) | > 100 µM (inactive)
